Results as given in patent EP2815749A1, “Solid form of 4-amino-2-(2,6-dioxopiperidine-3-yl)isoindoline-1,3-dione having specified X-ray diffraction pattern” (IP Gesellschaft für Management mbH, priority 2013, dated 2014).

What was measured:
AF508-CFTR = biological target: T1, AF508-CFTR (Homo sapiens, UniProt P13569, DEL508-508); experiment: Membrane potential optical assay for potentiation (FLIPR III); format: cell-based; settings: relative efficacy
T1 construct: expressed in transfected cells
Description: SINGLE CRYSTAL […] OF FORM T: Single crystal analysis was done on a crystal of Form T ({drug7r}) as described above. […] The driving force for the response is the creation of a chloride ion gradient in conjunction with channel activation by a single liquid addition step after the cells have previously been treated with compounds and subsequently loaded with a voltage sensing dye. Identification of Potentiator Compounds: To identify potentiators of AF508-CFTR, a double-addition HTS assay format was developed. […] The driving force for the response is a CI" ion gradient in conjunction with channel activation with forskolin in a single liquid addition step using a fluorescent plate reader such as FLIPR III after the cells have previously been treated with potentiator compounds (or DMSO vehicle control) and subsequently loaded with a redistribution dye. […] HBE grown on Costar® Snapwell™ cell culture inserts were mounted in an Using chamber (Physiologic Instruments, Inc., San Diego, CA), and the transepithelial resistance and short-circuit current in the presence of a basolateral to apical CI" gradient (Isc) were measured using a voltage-clamp system (Department of Bioengineering, University of Iowa, IA). […]

[1] = Polymorph screening: crash cooling; format: physicochemical
Protocol: (§1) Polymorph screening: A polymorph screen was conducted in the methylethyl ketone (MEK)/ water solvent systems, as well as in the acetonitrile (ACN), ACN/water and isopropyl acetate solvent systems. Polymorph screening techniques included crash cooling, solvent evaporation, antisolvent addition, and slurry experiments. Slurry experiments were performed on an IKA RCT hot plate with magnetic stirring set to 710 rpm. The temperature was controlled with an IKA ETS-D5 thermocouple. Solvent volumes were measured and transferred with Gibson Pipetteman volumetric pipettes. New forms that were identified as solvates were subjected to desolvation under two potential conditions: (1) drying in a vacuum oven at 40°C and (2) sitting undisturbed under ambient conditions in a fume hood. Physical characterization of all forms proceeded by X-ray powder diffraction (XRPD) and thermogravimetric analysis (TGA).
Experiment 1: Crash Cooling: A saturated solution of Compound (VII), Form XX was made by preparing 1 mL slurries using acetonitrile (ACN), ACN- water (75:25), methylethyl ketone (MEK), or MEK-water (99:1, 90:10, or 80:20) in vials. After 24 hours in capped HPLC vials, the slurries were then filtered to remove residual solids. Approximately 2 additional milligrams of Compound (VII) was added to each vial containing a saturated solution. Next, the vials were heated to 70°C with stirring until all of the material was completely dissolved. Immediately after, the samples were submerged into an ice bath. The product, which precipitated as a white powder within 1 minute, was isolated by filtration and analyzed by XRPD and TGA.

[2] = Polymorph screening: solvent evaporation; format: physicochemical; settings: form obtained
Protocol: as §1
A saturated solution was made by slurrying Compound (VII), Form XX in 5 mL of solvent (ACN, isopropyl acetate (IP Ac), or MEK) or 1 mL of solvent for the MEK/Water solvent system. After 24 hours, the residual solids were removed by filtration. The saturated solutions were then subjected to rapid solvent evaporation by blowing nitrogen (N2) gas over the samples with a Pierce Model 18780 Reacti-Vap evaporating unit for four hours. The product precipitated as a white powder and the form was analyzed by XRPD and TGA.

[3] = Polymorph screening: antisolvent addition; format: physicochemical; settings: form obtained
Protocol: as §1
Experiment 3: Antisolvent Addition: A saturated solution of Compound (VII), Form XX was made by slurrying either in 5 mL of solvent in the ACN, IP Ac, and MEK solvent systems, 2 mL total solvent for IP Ac/water, or 1 mL total solvent for the MEK/water solvent systems. After 24 hours, the residual solids were removed by filtration 20 mL of antisolvent was then quickly added to the saturated solutions to induce precipitation. Hexane was used as the antisolvent in the MEK and IP Ac solvent systems, and MTBE was used as the antisolvent in the ACN solvent systems, as a consequence of the immiscibility between ACN and hexane. The product precipitated as a white powder and the form was analyzed by XRPD and TGA. Table 9.

[4] = Hygroscopicity of pomalidomide Form A (DVS); format: physicochemical
Protocol: Pomalidomide Polymorph Preparations: A weighed sample of pomalidomide (about 100 mg) was treated with 2 mL of a test solvent. The solvents used were either reagent or HPLC grade. The resulting mixture was agitated for at least 24 hours at 25°C. When all of the solids were dissolved by visual inspection, the estimated solubilities were calculated. The solubility was estimated from these experiments based on the total volume of solvent used to give a solution. The actual solubility may be greater than those calculated due to the use of a large amount of solvent or to a slow rate of dissolution. […] A known volume of filtrate was evaporated to dryness and the weight of the residue was measured. Equilibration and evaporation experiments were carried out by adding an excess of pomalidomide to 4 mL of a test solvent. The resulting mixture was agitated for at least 24 hours at 25°C and 50°C separately. […] All of the samples generated as described in the polymorph preparation study were analyzed by XRPD. […] Diffracted radiation was detected by peitier-cooled Si(Li) solid state detector. […] Approximately 2-5 mg of sample was placed into a DSC pan and the weight was accurately recorded. […] Hygroscopicity was determined on a Surface Measurement Systems DVS. Typically a sample size of 10-50 mg was loaded into the DVS instrument sample pan and the sample was analyzed on a DVS automated sorption analyzer at 25°C. […]

[5] = Stability of pomalidomide Form A; format: physicochemical
Protocol: (§2) Hygroscopicity: Dynamic vapor sorption (DVS) analysis was carried out for two preparations of Form A using Surface Measurement Systems DVS. Representative DVS isotherm plots are presented in Figure 23 of WO2013/126326 and Figure 24 of WO2013/126326. In one study, the moisture uptake was less than about 0.14 % (wv'w) up to 95% relative humidity, indicative that pomalidomide Form A is not hygroscopic. […] At the end of desorption, the sample lost all of the weight it gained during the process of moisture sorption. […] The X-ray powder diffractograms are shown in Figure 25 and Figure 26 of WO2013/126326. […] The physical properties of the exposed form A were unchanged as compared to at the start of the study. Form A also appeared to be stable in acetone, acetonitrile, ethanol, ethyl acetate, methyl ethyl ketone, THF, toluene, ethanoi-water (1 : 1) or water at 40°C for at least 4 weeks. Compression Test: A compression test for Form A was carried out by applying 2000-psi pressure to the sample for 1 minute and then analyzing the sample by XRPD. […] Particle Size Distribution: In some embodiments, Form A was prepared as a white, irregular plate crystalline with a particle size D90 < 12 ? . Particle size distribution was determined for various lots of pomalidomide. Table 15: Particle Size Data for Pomalidomide Lots

[6] = Compression test of pomalidomide Form A; format: physicochemical; settings: 2000-psi pressure for 1 minute
Protocol: as §2

[7] = Solvent System Acetonitrile/H2O

T1 sequence (P13569 with tags, fused parts or gaps DEL508-508): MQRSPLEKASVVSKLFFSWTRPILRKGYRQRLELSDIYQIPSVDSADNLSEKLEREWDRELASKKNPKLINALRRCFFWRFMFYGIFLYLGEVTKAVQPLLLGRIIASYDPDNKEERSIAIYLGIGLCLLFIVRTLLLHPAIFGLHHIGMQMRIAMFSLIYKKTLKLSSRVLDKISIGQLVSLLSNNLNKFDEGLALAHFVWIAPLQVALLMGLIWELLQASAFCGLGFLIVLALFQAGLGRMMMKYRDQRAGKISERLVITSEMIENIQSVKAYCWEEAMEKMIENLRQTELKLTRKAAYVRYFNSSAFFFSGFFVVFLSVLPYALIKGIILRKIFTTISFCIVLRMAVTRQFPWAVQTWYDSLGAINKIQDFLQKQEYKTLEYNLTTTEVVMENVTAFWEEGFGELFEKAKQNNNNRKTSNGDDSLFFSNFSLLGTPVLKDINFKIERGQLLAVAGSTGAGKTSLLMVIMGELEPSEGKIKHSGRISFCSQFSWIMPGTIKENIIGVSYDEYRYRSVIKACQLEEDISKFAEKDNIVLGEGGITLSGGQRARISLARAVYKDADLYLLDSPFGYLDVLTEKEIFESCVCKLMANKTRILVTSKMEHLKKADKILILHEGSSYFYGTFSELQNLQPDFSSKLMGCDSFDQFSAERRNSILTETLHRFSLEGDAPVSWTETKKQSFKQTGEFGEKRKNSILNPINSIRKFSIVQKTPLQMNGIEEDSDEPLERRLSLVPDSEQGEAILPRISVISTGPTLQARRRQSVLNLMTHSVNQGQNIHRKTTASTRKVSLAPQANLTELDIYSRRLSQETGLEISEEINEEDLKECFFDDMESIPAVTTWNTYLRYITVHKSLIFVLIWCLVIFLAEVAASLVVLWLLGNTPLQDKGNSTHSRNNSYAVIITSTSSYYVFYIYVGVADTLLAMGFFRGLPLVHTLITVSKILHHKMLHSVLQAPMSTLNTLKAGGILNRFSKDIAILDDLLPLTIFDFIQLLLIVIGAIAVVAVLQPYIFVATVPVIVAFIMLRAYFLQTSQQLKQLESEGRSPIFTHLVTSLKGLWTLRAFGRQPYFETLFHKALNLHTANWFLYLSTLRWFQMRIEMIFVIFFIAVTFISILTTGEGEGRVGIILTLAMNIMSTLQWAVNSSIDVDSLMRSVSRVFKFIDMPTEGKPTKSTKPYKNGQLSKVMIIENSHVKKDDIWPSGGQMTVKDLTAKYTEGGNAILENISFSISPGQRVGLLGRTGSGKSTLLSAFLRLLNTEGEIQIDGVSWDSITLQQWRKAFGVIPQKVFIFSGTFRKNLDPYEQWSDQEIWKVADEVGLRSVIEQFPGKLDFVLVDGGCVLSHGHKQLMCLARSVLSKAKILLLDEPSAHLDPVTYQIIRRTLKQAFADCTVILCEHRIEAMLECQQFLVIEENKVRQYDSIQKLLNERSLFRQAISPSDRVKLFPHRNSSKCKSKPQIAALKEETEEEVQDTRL

## CC(C)(C)c1cc(C(C)(C)C)c(NC(=O)c2c[nH]c3ccccc3c2=O)cc1O [Compound (VII), N-[2,4-bis(1,1-dimethylethyl)-5-hydroxyphenyl]-1,4-dihydro-4-oxoquinoline-3-carboxamide]
AF508-CFTR
  % Activity: ++ ("++" means between 25% to 100%)
[1]; Solvent System Acetonitrile
  Solvate Polymorph: Form D
[1]; [7]
  Solvate Polymorph: Form D
[1]; Solvent System MEK
  Solvate Polymorph: Form E
[1]; Solvent System MEK/H2O (80:20)
  Solvate Polymorph: Form E
[1]; Solvent System MEK/H2O (90:10)
  Solvate Polymorph: Form E
[1]; Solvent System MEK/H2O (99:1)
  Solvate Polymorph: Form E
[1]; Solvent System Water
  Solvate Polymorph: not soluble
[2]; [7]
  Solvent Evaporation: Form F
[2]; Solvent System IPAc
  Solvent Evaporation: Form G Semi-crystalline
[2]; Solvent System IPAc/H2O
  Solvent Evaporation: Form H
[2]; Solvent System MEK
  Solvent Evaporation: Form I
[2]; Solvent System MEK/H2O (80:20)
  Solvent Evaporation: Form E
[2]; Solvent System MEK/H2O (90:10)
  Solvent Evaporation: Form E
[2]; Solvent System MEK/H2O (99:1)
  Solvent Evaporation: Form J
[2]; Solvent System Water
  Solvent Evaporation: not soluble
[3]; Solvent System IPAc/H2O
  Antisolvent Addition: Form T
[3]; Solvent System MEK
  Antisolvent Addition: Form K
[3]; Solvent System MEK/H2O (80:20)
  Antisolvent Addition: Form K
[3]; Solvent System MEK/H2O (90:10)
  Antisolvent Addition: Form K
[3]; Solvent System MEK/H2O (99:1)
  Antisolvent Addition: Form K
[3]; Solvent System Water
  Antisolvent Addition: not soluble

## Nc1cccc2c1C(=O)N(C1CCC(=O)NC1=O)C2=O (stereo not drawn) [pomalidomide Form A, 4-amino-2-(2,6-dioxopiperidine-3-yl)isoindoline-1,3-dione]
[4]; relative humidity increased from 0 to 95%, another study
  mass change over the dry mass: less than 0.11%
[4]; up to 95% relative humidity, one study
  moisture uptake: less than 0.14 % (wv'w)
[5]; 40°C/75% RH environment for four weeks
  physical properties after exposure: unchanged
[5]; acetone, acetonitrile, ethanol, ethyl acetate, methyl ethyl ketone, THF, toluene, ethanol-water (1:1) or water at 40°C
  time stable in solvent: at least 4 weeks
[6]
  XRPD pattern after compression: unchanged
